ChEMBL document CHEMBL1772960, “N,N'-methyleno-didemnin A from the ascidian Trididemnum solidum. Complete NMR assignments and confirmation of the imidazolidinone ring by strategic analysis of 1J(CH)” (J Nat Prod, 2011)
*1 amine or outer side, *2 acyl side, *3 side chain or, on linkers, in order; H or OH if unused. Where a SMILES comes first, the peptide text is derived from it. Bridges are numbered along the chain shown (N, C = ends). [ ]: non-standard residue; d: D form. The star is where a group is joined. X1 = CC[C@H](C)[C@@H](N[*:1])[C@@H](O)CC(=O)O[C@H](C(=O)[C@H](C)C(=O)[*:2])C(C)C; NMeY = CN[C@@H](Cc1ccc(O)cc1)C(=O)O; NMeL = CN[C@@H](CC(C)C)C(=O)O; dNMeL = CN[C@H](CC(C)C)C(=O)O; Pyruvoyl = CC(=O)C(=O)*

Test system: HCT-116
Assay: Cytotoxicity against human HCT116 cells assessed as growth inhibition after 72 hrs by MTS assay
Assay type: functional, cell-based
Conditions: HCT-116, 72 h

| SMILES | IC50 |
| --- | --- |
| CC[C@H](C)[C@H]1NC(=O)[C@@H](NC(=O)[C@@H](CC(C)C)NC)[C@@H](C)OC(=O)[C@H](Cc2ccc(OC)cc2)N(C)C(=O)[C@@H]2CCCN2C(=O)[C@H](CC(C)C)NC(=O)[C@@H](C)C(=O)[C@H](C(C)C)OC(=O)C[C@@H]1O [DIDEMNIN A] (H-[dNMeL]T[X1]LP[NMeY](Me); ester 2-C) | 32 nM |
| CC[C@H](C)[C@H]1NC(=O)[C@@H](NC(=O)[C@H](CC(C)C)N(C)C(=O)[C@@H]2CCCN2C(=O)C(C)=O)[C@@H](C)OC(=O)[C@H](Cc2ccc(OC)cc2)N(C)C(=O)[C@@H]2CCCN2C(=O)[C@H](CC(C)C)NC(=O)[C@@H](C)C(=O)[C@H](C(C)C)OC(=O)C[C@@H]1O (Pyruvoyl-P[NMeL]T[X1]LP[NMeY](Me); ester 3-C) | 24 nM |
